Test results as given in patent US20100215782A1, “NOVEL MITOCHONDRIAL UNCOUPLING METHODS AND COMPOSITIONS FOR ENHANCING ADIPOCYTE THERMOGENESIS” (METAPROTEOMICS, LLC, priority 2008, published 2010).

Key:
3T3-L1 adipocytes = test: JC-1 mitochondrial membrane potential (uncoupling) assay in 3T3-L1 adipocytes; assay type: cell-based, murine; conditions: for Monomer/Aggregate Ratio: 3T3-L1 adipocytes, test material 25 μg/mL, JC-1 fluorescence relative to JC-1 negative control, values >1.06 significant (p<0.05)
Source text: Objective—The objective of this experiment was to observe the dose-response effect of the mitochondrial uncoupler DNP on mitochondrial membrane potential in 3T3-L1 adipocytes using the lipophilic cationic dye, 5,5′,6,6′-tetrachloro-1,1′,3,3′-tetraethylbenzimidazolylcarbocyanine iodide (JC-1).
The Model—The 3T3-L1 murine fibroblast model is commonly used to study the potential effects of compounds on white adipose tissue in vitro. This cell line allows investigation of stimuli and mechanisms that regulate inflammatory mediators of cytokine secretion of the adipocyte. As preadipocytes, 3T3-L1 cells have a fibroblastic appearance. They replicate in culture until they form a confluent monolayer, after which cell-cell contact triggers Go/G1 growth arrest. Terminal differentiation of 3T3-L1 cells to adipocytes depends on proliferation of both pre- and post-confluent preadipocytes. Subsequent stimulation with 3-isobutyl-1-methylxanthane, dexamethasone, and high does of insulin (MDI) for two days prompts these cells to undergo post-confluent mitotic clonal expansion, exit the cell cycle, and begin to express adipocyte-specific genes. Approximately five days after induction of differentiation, more than 90% of the cells display the characteristic lipid-filled adipocyte phenotype. At this stage of differentiation, response to mitochondrial uncouplers such as DNP may be assessed.
Cell culture and Treatment—The murine fibroblast cell line 3T3-L1 was purchased from the American Type Culture Collection (Manassas, Va.) and sub-cultured according to instructions from the supplier. Prior to experiments, cells were cultured in DMEM containing 10% FBS-HI added 50 units penicillin/ml and 50 μg streptomycin/ml, and maintained in log phase prior to experimental setup. Cells were grown in a 5% CO2 humidified incubator at 37° C. Components of the pre-confluent medium included: (1) 10% FBS/DMEM (Fetal Bovine Serum/Dulbecco's Modified Eagle's Medium) containing 4.5 g glucose/L; (2) 50 U/ml penicillin; and (3) 50 μg/ml streptomycin. Growth medium was made by adding 50 ml of heat inactivated FBS and 5 ml of penicillin/streptomycin to 500 ml DMEM. This medium was stored at 4° C. Before use, the medium was warmed to 37° C. in a water bath.
[…] cells were seeded at an initial density of 6×10^4 cells/cm^2 in 24-well plates. For two days, the cells were allowed grow to reach confluence. Following confluence, the cells were forced to differentiate into adipocytes by the addition of differentiation medium; this medium consisted of (1) 10% FBS/DMEM (high glucose); (2) 0.5 mM methylisobutylxanthine; (3) 0.5 μM dexamethasone and (4) 10 μg/ml insulin (MDI medium). After three days, the medium was changed to post-differentiation medium consisting of 10 μg/ml insulin in 10% FBS/DMEM.
Treatment with Test Material 2,4-Dinitrophenol—On Day 6 post differentiation, DNP was dissolved in dimethyl sulfoxide (DMSO) and added to the culture medium to achieve concentrations of 500, 100, 50, 10 or 5 μM per column for 60 min at 37° C. JC-1 was then added to the test and negative control columns in 10 μL DMSO to achieve a final concentration of 5 μM and allowed to incubate at 37° C. for an additional 30 min. A DMSO and solvent plus JC-1 control were run concurrently with each experiment. A Packard Fluorocount spectrofluorometer (Model#BF10000, Meridan, Conn.) set at 560 nm excitation and 590 nm emission was used for quantification of aggregate fluorescence and at 485 nm excitation/530 emission for monomer fluorescence.
Measuring mitochondrial membrane potential changes (ΔΨm)—JC-1 (Sigma, St. Louis, Mo.) has advantages over other cationic dyes in that it can selectively enter into mitochondria and reversibly change color from green to red as the membrane potential increases. In healthy cells with high mitochondrial membrane potential (ΔΨm), JC-1 spontaneously forms complexes known as J-aggregates with intense red fluorescence. […]

[1] = cited from earlier work

CCCCC[C@H](O)CC(=O)CCc1ccc(O)c(OC)c1 [6-Gingerol]
Monomer/Aggregate Ratio (3T3-L1 adipocytes): 1.14

COc1cc(/C=C/C(=O)CC(=O)/C=C/c2ccc(O)c(OC)c2)ccc1O [Curcumin]
Monomer/Aggregate Ratio (3T3-L1 adipocytes): 3.89

O=[N+]([O-])c1ccc(O)c([N+](=O)[O-])c1 [DNP, 2,4-dinitrophenol]
Potency of positive control (decrease of ΔΨm) (3T3-L1 adipocytes; 18.4 μg DNP/mL): 45% | Mean M/A (monomer/aggregate ratio) of positive control (3T3-L1 adipocytes; 100 μM 2,4-dinitrophenol (18.4 μg DNP/mL), 95% CI=1.34-1.39, n=200, over the experimental period): 1.36 | Concentration at which monomer/aggregate ratio is significantly increased (p<0.05) relative to JC-1 negative controls (3T3-L1 adipocytes; 3T3-L1 adipocytes, 500, 100, 50, 10 or 5 μM for 60 min, FIG. 2): ≥ 50 µM | Change of ΔΨm in 3T3-L1 adipocytes (in words) (3T3-L1 adipocytes; relative to negative JC-1 controls): dose-related decreased in ΔΨm | Average fall in diastolic blood pressure ([1]; 30 hypertensive patients): 12.6% | Average fall in systolic blood pressure ([1]; 30 hypertensive patients): 9.4% | Dose generally well-tolerated ([1]; approximately 5 mg/kg body weight, feeling of warmth and increased perspiration reported): up to 0.5 g | Gradual increase in metabolic rate (average) ([1]; daily dosing of 3-5 mg/kg, maintained for a minimum of ten weeks): 40% | Dose producing profuse sweating, increased heart rate, respiration rate and excessive body temperature rises ([1]; human, in vivo): Above 10 mg/kg | Average increase in metabolic rate for each dosage increment of 0.1 g ([1]; obese patients): 11% | Increase in resting metabolic rate ([1]; single doses of 3-5 mg/kg, within the first hour, maintained for 24 hours): 20-30% | Effect on blood pressure or heart rate ([1]; therapeutic doses, normal patients): no effect on blood pressure or heart rate

Oc1ccc(C=Cc2cc(O)cc(O)c2)cc1 [Resveratrol]
Monomer/Aggregate Ratio (3T3-L1 adipocytes): 1.48

C[C@@H]1O[C@@H](OC[C@H]2O[C@@H](Oc3c(-c4ccc(O)c(O)c4)oc4cc(O)cc(O)c4c3=O)[C@H](O)[C@@H](O)[C@@H]2O)[C@H](O)[C@H](O)[C@H]1O [Rutin Powder, Rutin]
Monomer/Aggregate Ratio (3T3-L1 adipocytes): 1.37

CNCC(O)c1ccc(O)cc1 (centres unmarked) [Synephrine]
Monomer/Aggregate Ratio (3T3-L1 adipocytes): 1.06
